Laboratory results taken from US8334293B2, “P70 S6 kinase inhibitor and EGFR inhibitor combination therapy” (Eli Lilly and Company, priority 2008, dated 2012).
Where a name gives a salt, the structure may show the parent alone.

Test system: A549 human non-small-cell lung carcinoma cells
Test: In vivo efficacy, A549 xenograft tumor volume
Design: species or system mice
Conditions: for pairwise comparison of log tumor volume AUC with the combination group / statistical difference (p) of log tumor volume AUC from the vehicle: 2-way ANOVA; for Tumor volume Mean: oral once daily, 2.5 mg/kg p70 S6 kinase inhibitor and/or 20 mg/kg erlotinib hydrochloride, in mm^3 (unit assumed); for Signif. (difference relative to vehicle group): tumor volume, repeated measures ANOVA; for log tumor volume AUC: tumor volume vs. time, trapezoid rule, vehicle 3.91
Method: A549 human non-small-cell lung carcinoma cells (5×10^6) are subcutaneously implanted into the flank of female C.B-17 (Fox Chase SCID) Model #CB17SC-M mice in 0.2 mL of matrigel. Approximately 1 week post-implantation when the tumor size is approximately 100 mg, mice are randomized into groups of 10 and dosed orally once daily at 2.5 mg/kg 4-[4-[4-(4-fluoro-3-trifluoromethyl-phenyl)-1-methyl-1H-imidazol-2-yl]-piperidin-1-yl]-1H-pyrazolo[3,4-d]pyrimidine (the p70 S6 kinase inhibitor; formulated in 35% PEG300/10% HPBCD/10% PS80 in H2O; concentration of inhibitor is 0.31 mg/mL) or 20 mg/kg erlotinib hydrochloride (formulated in NaCMC Tween 80; concentration of erlotinib hydrochloride is 2.5 mg/mL) or in combination (2.5 mg/kg of the p70 S6 kinase inhibitor and 20 mg/kg of erlotinib hydrochloride). The vehicle group is given the 2 vehicles (NaCMC Tween 80 and 35% PEG300/10% HPBCD/10% PS80 in H2O) in combination (0.1 mL of each). Treatment is continued for 38 days. Tumor volumes are measured using standard technique twice weekly and reported. Tumor size and body weight are recorded and analyzed bi-weekly. Tumor volume is estimated by using the formula: v=l×w^2×0.536 where l=larger of measured diameter and w=smaller of perpendicular diameter. The analysis uses SAS software version 8.2 (SAS Institutes Inc, Cary, N.C.) to analyze the log tumor volume data using a repeated measures ANOVA model with a spatial power covariance structure. For each time point taken, treatment groups are compared to the vehicle control group. Tumor volumes are given as means±standard errors for each treatment group determined from a repeated measures ANOVA on each group. (SAS for Mixed Models, 2nd Ed., Littell et al., 2006, SAS Institutes Inc, Cary, N.C.).
The tumor volume vs. time data for each animal is used to calculate an area under the curve (AUC) using the trapezoid rule. These AUCs are analyzed by 2-way ANOVA using a log transformation to equalize variance across groups. The two factors are the dose of 4-[4-[4-(4-fluoro-3-trifluoromethyl-phenyl)-1-methyl-1H-imidazol-2-yl]-piperidin-1-yl]-1H-pyrazolo[3,4-d]pyrimidine and the dose of erlotinib hydrochloride. The interaction effect between the factors is used to test for departure from additivity. (An Introduction to Statistical Methods and Data Analysis, R. Lyman Ott, 1993, Duxbury Press, Belmont, Calif.)
The results of this study are shown in the table below. n (the number of mice) is 9 for all the data, except for the data from day 17 onwards in the vehicle group and the data from day 38 onwards in the erlotinib hydrochloride group when it is 8. The data in the column headed Signif. indicates whether the difference relative to the vehicle group is statistically significant: NS=Not Significant (p>0.05); *=0.01<p≦0.05; **=0.001<p≦0.01; ***=p≦0.001.

Compound | pairwise comparison of log tumor volume AUC with the combination group | statistical difference (p) of log tumor volume AUC from the vehicle | Tumor volume Mean (Day 7) | Signif. (difference relative to vehicle group) (Day 7) | Tumor volume Mean (Day 9) | Signif. (difference relative to vehicle group) (Day 9) | Tumor volume Mean (Day 14) | Signif. (difference relative to vehicle group) (Day 14) | Tumor volume Mean (Day 17) | Signif. (difference relative to vehicle group) (Day 17) | Tumor volume Mean (Day 21) | Signif. (difference relative to vehicle group) (Day 21) | Tumor volume Mean (Day 24) | Signif. (difference relative to vehicle group) (Day 24) | Tumor volume Mean (Day 28) | Signif. (difference relative to vehicle group) (Day 28) | Tumor volume Mean (Day 31) | Signif. (difference relative to vehicle group) (Day 31) | Tumor volume Mean (Day 35) | Signif. (difference relative to vehicle group) (Day 35) | other results
C#Cc1cccc(Nc2ncnc3cc(OCCOC)c(OCCOC)cc23)c1 [Erlotinib Hydrochloride, N-(3-ethynylphenyl)-6,7-bis-(2-methoxyethoxy)-4-quinazolinamine] | significantly different from the combination group | not significantly different from the vehicle | 39.5 | NS (NS=Not Significant (p>0.05)) | 51.5 | NS (NS=Not Significant (p>0.05)) | 61.8 | NS (NS=Not Significant (p>0.05)) | 74.8 | NS (NS=Not Significant (p>0.05)) | 91.1 | NS (NS=Not Significant (p>0.05)) | 101.6 | NS (NS=Not Significant (p>0.05)) | 139.9 | NS (NS=Not Significant (p>0.05)) | 141.8 | ** (**=0.001<p≦0.01) | 196.7 | ** (**=0.001<p≦0.01) | Tumor volume Mean (Day 38): 259.4; Signif. (difference relative to vehicle group) (Day 38): * (*=0.01<p≦0.05); Tumor volume Mean (Day 42): 260.1; Signif. (difference relative to vehicle group) (Day 42): ** (**=0.001<p≦0.01); Tumor volume Mean (Day 44): 373.8; Signif. (difference relative to vehicle group) (Day 44): * (*=0.01<p≦0.05); log tumor volume AUC: 3.76
Cn1cc(-c2ccc(F)c(C(F)(F)F)c2)nc1C1CCN(c2ncnc3[nH]ncc23)CC1 [p70 S6 Kinase Inhibitor, 4-[4-[4-(4-fluoro-3-trifluoromethyl-phenyl)-1-methyl-1H-imidazol-2-yl]-piperidin-1-yl]-1H-pyrazolo[3,4-d]pyrimidine] | significantly different from the combination group | not significantly different from the vehicle | 33.8 | NS (NS=Not Significant (p>0.05)) | 51.9 | NS (NS=Not Significant (p>0.05)) | 56.2 | NS (NS=Not Significant (p>0.05)) | 75.9 | NS (NS=Not Significant (p>0.05)) | 94.1 | NS (NS=Not Significant (p>0.05)) | 113.5 | NS (NS=Not Significant (p>0.05)) | 196.6 | NS (NS=Not Significant (p>0.05)) | 231.3 | NS (NS=Not Significant (p>0.05)) | 302.4 | NS (NS=Not Significant (p>0.05)) | Tumor volume Mean (Day 38): 353.3; Signif. (difference relative to vehicle group) (Day 38): NS (NS=Not Significant (p>0.05)); Tumor volume Mean (Day 42): 425.5; Signif. (difference relative to vehicle group) (Day 42): NS (NS=Not Significant (p>0.05)); Tumor volume Mean (Day 44): 530.9; Signif. (difference relative to vehicle group) (Day 44): NS (NS=Not Significant (p>0.05)); log tumor volume AUC: 3.85
